# Data as given in US8178133B2, “Magnesium compositions and uses thereof” (Magceutics, Inc., priority 2007, dated 2012).
# Tests used:
# [1] = system: young and aging/aged rats; assay: Elevated T-maze test, spatial working memory; format: in vivo, Sprague Dawley (SD) rats; conditions: MgCl2 diet
# Procedure: Twenty 2-month old, male Sprague Dawley (SD) rats were housed in a temperature-controlled room (22° C. to 25° C.) with a dark period from 08:00 pm to 08:00 am daily. […] Over 7 days before the training and trial period began, each rat was handled and habituated to the maze and to Kellogg's Froot Loop cereal.
# Each rat underwent a test of one trial, followed by an interval of 10-minutes, followed by another trial, and so on, for a total of 6 trials in one day. In each trial, each rat went through a sample run in the maze, followed by an interval of 15 seconds, followed by a choice run in the maze. In the sample run, the subject rat was forced to go to the left or to the right by the presence of a block, according to a pseudorandom sequence (with an equal number of left turns and right turns, and no more than two consecutive turns in the same direction). As a reward, Froot Loop cereal was available in the food well at the end of the run, regardless of the direction that was taken by virtue of the block. In the choice run, the block that had been present in the preceding sample run was removed, and the rat was allowed to choose to go to the left or to the right. […]
# Three groups of animals (young, aging, and magnesium-treated aging rats) were used. […] Spatial working memory was assessed using a T-maze non-matching-to-place task. […] Spatial working memory was first assessed on an elevated T-maze. […]
# aging rats = assay: Novel object recognition test in rats; format: in vivo, Sprague-Dawley rats
# [2] = system: young (9-month old) and aged (25-month old) rats; conditions: food containing 2% magnesium oxide for 8 days; cited from earlier work
# [3] = system: mice genetically altered to present symptoms of Alzheimer's disease (AD); assay: Modified Morris water maze test in AD mice; format: in vivo; conditions: AD mice aged 13 months
# Procedure: Another group, the control group, of 10 mice that were genetically altered to present symptoms of AD were fed a Control Diet, a diet of normal solid food and water, for 30 days.
# The pool used was a pool of water in a circular metal tank (150 cm in diameter and 50 cm in depth) having a water height of 30 cm and a water temperature that was maintained at ˜22° C. The pool was placed in a moderately lit area and surrounded by a black curtain. An acrylic platform (15 cm in diameter) was placed 2 cm below the surface of the water in the middle of one quadrant of the pool, equidistant from the center and the edge of the pool. Outside the pool, a cue was placed so as to be visible to a mouse in the maze, allowing a mouse to use it as a landmark for spatial orientation. The cue remained unchanged throughout the test period.
# On the first day of the training and testing period, the water in the pool was transparent, such that the platform was visible. Each mouse was trained to swim towards the platform and to stand on the platform so as not to be submerged in the pool. […] The amount of time the mouse took to find the platform, referred to as “escape latency,” was recorded for each trial.
# On the second day of the training and testing period, a small quantity of milk was added to the water in the pool, such that the pool was opaque and the platform was no longer visible. […]
compound,measurement,setting,value
[Cl-].[Cl-].[Mg+2] [MgCl2],"spatial working memory, choice accuracy with increased delay",[1]; 2 and 5 min delays,significantly enhanced the performance of the aging rats
same,"percentage of correct choices, learning of non-matching-to-place task",[1]; 15 sec delay,performed significantly better from their first trials
same,novel object exploration preference,"aging rats; aging rats 12-14 months, 6 mg/kg MgCl2 from 8 months of age, single training, 10 minute retention interval",preferentially explored the novel object to the same extent as young rats
same,novel object exploration preference,"aging rats; aging rats, single training, 24 hours retention interval",lose there ability to distinguish novel versus familiar objects
same,novel object exploration preference,"aging rats; aging rats, two training sessions (spaced training), 24-hour retention interval",retained a high level of preference
[O]=[Mg] [magnesium oxide],cognitive function,[2],some sign of improvement of cognitive function
CC12CC3CC(C)(C1)CC(N)(C3)C2 [memantine],"effect on learning capacity, comparison with anti-AD drugs",[3],better at reducing the effects of AD on learning capacity than aricept
COc1cc2c(cc1OC)C(=O)C(CC1CCN(Cc3ccccc3)CC1)C2 (centres unmarked) [aricept],"effect on learning capacity, comparison with anti-AD drugs",[3],both being better at reducing the effects of AD on learning capacity than aricept
